Results reported in patent US4536335A, “Carbapenem antibiotics” (Bristol-Myers Company, priority 1983, dated 1985).
In brackets after ≈: the same amount, converted by molar mass. Like-named read-outs stand apart in the source and are kept apart here.

Legend:
S. pneumoniae A-9585 = experiment: In vitro MIC, tube dilution; format: cell-based; conditions: overnight incubation at 37° C.; for MIC: Streptococcus pneumoniae, A9585, Nutrient Broth
S. pyogenes A-9604 = experiment: In vitro MIC, tube dilution; format: cell-based; conditions: Nutrient Broth, overnight incubation at 37° C.; for MIC: Streptococcus pyogenes, A9604, tube dilution
[1] = system: S. aureus A-9606 (Pen-res.); experiment: In vitro MIC, tube dilution; format: cell-based; conditions: Nutrient Broth, overnight incubation at 37° C.; for MIC: Staphylococcus aureus
S. faecalis A20688 = experiment: In vitro MIC, tube dilution; format: cell-based; conditions: Nutrient Broth, overnight incubation at 37° C.; for MIC: Enterococcus faecalis, A20688, tube dilution
K. pneumoniae A-9664 = experiment: In vitro MIC, tube dilution; format: cell-based; conditions: Nutrient Broth, overnight incubation at 37° C.; for MIC: Klebsiella pneumoniae, A9664, tube dilution
K. pneumoniae A20468 = experiment: In vitro MIC, tube dilution; format: cell-based; conditions: Klebsiella pneumoniae, A20468, tube dilution, Nutrient Broth, overnight incubation at 37° C.
P. mirabilis A-9900 = experiment: In vitro MIC, tube dilution; format: cell-based; conditions: Nutrient Broth, overnight incubation at 37° C.; for MIC: Proteus mirabilis, A9900, tube dilution
P. morganii A15153 = experiment: In vitro MIC, tube dilution; format: cell-based; conditions: Morganella morganii, A15153, tube dilution, Nutrient Broth, overnight incubation at 37° C.; read-out: MIC P. morganii A15153
P. rettgeri A22424 = experiment: In vitro MIC, tube dilution; format: cell-based; conditions: Providencia rettgeri, A22424, tube dilution, Nutrient Broth, overnight incubation at 37° C.
S. marcescens A20019 = experiment: In vitro MIC, tube dilution; format: cell-based; conditions: tube dilution, Nutrient Broth, overnight incubation at 37° C.
B. fragilis A22053 = experiment: In vitro MIC, tube dilution; format: cell-based; conditions: Bacteroides fragilis, Nutrient Broth, overnight incubation at 37° C.
Description: (§1) N-Formimidoyl thienamycin was included as a comparison compound.

B. fragilis A22696 = experiment: In vitro MIC, tube dilution; format: cell-based; conditions: Bacteroides fragilis, Nutrient Broth, overnight incubation at 37° C.
Description: as §1

B. fragilis A22863 = experiment: In vitro MIC, tube dilution; format: cell-based; conditions: Bacteroides fragilis, Nutrient Broth, overnight incubation at 37° C.
Description: as §1

E. cloacae A-9569 = experiment: In vitro MIC, tube dilution; format: cell-based; conditions: Enterobacter cloacae, A9569, Nutrient Broth, overnight incubation at 37° C.
Description: as §1

E. cloacae A-9656 = experiment: In vitro MIC, tube dilution; format: cell-based; conditions: tube dilution, Nutrient Broth, overnight incubation at 37° C.
P. aeruginosa A-9843A [2] = experiment: In vitro MIC, tube dilution; format: cell-based; conditions: Pseudomonas aeruginosa, A9843A, Nutrient Broth, overnight incubation at 37° C.
P. aeruginosa A21213 = experiment: In vitro MIC, tube dilution; format: cell-based; conditions: Nutrient Broth, overnight incubation at 37° C.; for MIC: Pseudomonas aeruginosa, A21213, tube dilution
P. aeruginosa A-9843a [3] = experiment: Protective effect in the intramuscular treatment of infected mice (PD50); format: in vivo; conditions: Pseudomonas aeruginosa, A9843A, im
Experimental: The PD50 (dose in mg/kg required to give protection to 50% of the infected mice) is indicated.
Treatment Schedule: Mice were treated i.m. with drugs 0 and 2 hours post-infection; 5 mice per dose were used for each test
*For compound of Ex. 2, mice were infected i.p. with 2 × 10^9
compounds of Ex. 4 and 5, mice were infected i.p. with ~9 ×
were treated i.m. with drugs 0 and 2 h postinfection.

P. aeruginosa A20481 = experiment: as above; format: in vivo; conditions: Pseudomonas aeruginosa, A20481, im; mice infected i.p. (Ex. 2: 1 × 10^5 organisms), treated i.m. 0 and 2 h postinfection
S. aureus A-9606 = experiment: as above; format: in vivo; conditions: Staphylococcus aureus, A9606, im, read-out: PD50/treatment, S. aureus A-9606, mice infected i.p. (Ex. 2: 2 × 10^9 organisms; Ex. 4 and 5: ~9 × 10^7), treated i.m. 0 and 2 h postinfection
[4] = Blood levels in mice after intramuscular administration; format: in vivo; conditions: mouse, intramuscular dose of 20 mg/kg
Description: Compounds were solubilized in 0.1 M phosphate buffer pH 7. Values are fro
a single test; 4 mice used per compound.
*t1/2 refers to halflife in minutes
**AUC refers to the area under the blood concentrationtime curve
(§2) Also shown is the urinary recovery in the mice.
Compounds were solubilized in 0.1 M phosphate buffer, pH 7.
Values based on a single test; 4 mice per compound.
*T1/2 refers to halflife in minutes

[5] = Urinary recovery after intramuscular administration to mice; format: in vivo; conditions: mouse, urine, im, 20 mg/kg, mice, i.m. 20 mg/kg, 6-24 hours after administration; read-out: Percentage of Dose Recovered in urine, 6-24 hours
Experimental: Compounds were solubilized in 0.1 M phosphate buffer pH 7. Values are from a single test; 4 mice per compound.
as §2
***Recovery based on 0-6 hour collection

[6] = tube dilution, additional data table, listed as MK 0787

C[C@@H](O)[C@H]1C(=O)N2C(C(=O)O)=C(SCCN=CN)C[C@H]12 [N-Formimidoyl Thienamycin, N-formimidoyl thienamycin, reference compound]
MIC S. pneumoniae A-9585 (S. pneumoniae A-9585; Nutrient Broth, additional data table, listed as MK 0787): 0.001 µg/mL (≈ 0.00334 µM) | MIC (S. pneumoniae A-9585): 0.004 µg/mL (≈ 0.0134 µM) | MIC (S. pneumoniae A-9585; additional data table): 0.002 µg/mL (≈ 0.00668 µM) | MIC (S. pyogenes A-9604): 0.001 µg/mL (≈ 0.00334 µM) | MIC (S. pyogenes A-9604; additional data table): 0.002 µg/mL (≈ 0.00668 µM) | MIC S. pyogenes A-9604 (S. pyogenes A-9604; [6]): 0.001 µg/mL (≈ 0.00334 µM) | MIC S. aureus (Pen-res.) A-9606 ([1]; additional data table, listed as MK 0787): 0.004 µg/mL (≈ 0.0134 µM) | MIC ([1]; additional data table, read-out: MIC S. aureus (Pen-res.) A-9606): 0.008 µg/mL (≈ 0.0267 µM) | MIC ([1]; read-out: MIC S. aureus A-9606 (Pen-res.)): 0.008 µg/mL (≈ 0.0267 µM) | MIC (S. faecalis A20688): 0.5 µg/mL (≈ 1.67 µM) | MIC (S. faecalis A20688; additional data table): 0.25 µg/mL (≈ 0.835 µM) | MIC S. faecalis A20688 (S. faecalis A20688; [6]): 0.5 µg/mL (≈ 1.67 µM) | MIC (K. pneumoniae A-9664): 0.13 µg/mL (≈ 0.434 µM) | MIC (K. pneumoniae A-9664; additional data table): 0.03 µg/mL (≈ 0.1 µM) | MIC K. pneumoniae A-9664 (K. pneumoniae A-9664; [6]): 0.06 µg/mL (≈ 0.2 µM) | MIC (K. pneumoniae A20468): 0.06 µg/mL (≈ 0.2 µM) | MIC (P. mirabilis A-9900): 0.06 µg/mL (≈ 0.2 µM) | MIC (P. mirabilis A-9900; additional data table): 0.03 µg/mL (≈ 0.1 µM) | MIC P. mirabilis A-9900 (P. mirabilis A-9900; [6]): 0.06 µg/mL (≈ 0.2 µM) | MIC (P. morganii A15153): 0.13 µg/mL (≈ 0.434 µM) | MIC (P. rettgeri A22424): 0.25 µg/mL (≈ 0.835 µM) | MIC (P. rettgeri A22424; additional data table): 0.13 µg/mL (≈ 0.434 µM) | MIC (S. marcescens A20019; Serratia marcescens, A20019): 0.03 µg/mL (≈ 0.1 µM) | MIC S. marcescens A20019 (S. marcescens A20019; additional data table): 0.03 µg/mL (≈ 0.1 µM) | MIC (B. fragilis A22053): 0.06 µg/mL (≈ 0.2 µM) | MIC (B. fragilis A22696): 0.13 µg/mL (≈ 0.434 µM) | MIC (B. fragilis A22863): 1 µg/mL (≈ 3.34 µM) | MIC (E. cloacae A-9569): 0.06 µg/mL (≈ 0.2 µM) | MIC (E. cloacae A-9656; Enterobacter cloacae, A9656): 0.06 µg/mL (≈ 0.2 µM) | MIC E. cloacae A-9656 (E. cloacae A-9656; additional data table): 0.06 µg/mL (≈ 0.2 µM) | MIC (P. aeruginosa A-9843A [2]): 1 µg/mL (≈ 3.34 µM) | MIC (P. aeruginosa A-9843A [2]; additional data table): 1 µg/mL (≈ 3.34 µM) | MIC (P. aeruginosa A21213): 0.25 µg/mL (≈ 0.835 µM) | MIC (P. aeruginosa A21213; additional data table): 0.13 µg/mL (≈ 0.434 µM) | MIC P. aeruginosa A21213 (P. aeruginosa A21213; [6]): 0.25 µg/mL (≈ 0.835 µM) | ED50 (P. aeruginosa A-9843a [3]; read-out: PD50/treatment, P. aeruginosa A9843A): 1 mg/kg | ED50 (P. aeruginosa A-9843a [3]; mice, i.m., *Historical data, read-out: PD50/Treatment, P. aeruginosa A-9843a (historical data)): 0.5 mg/kg | ED50 (P. aeruginosa A20481): 0.4 mg/kg | ED50 (S. aureus A-9606): 0.07 mg/kg | Blood AUC [4]: 6000 ng·h/mL | dose excreted at 24 h [5]: < 0.1%
